Assay results reported in patent publication US10273248B2, “Glucose uptake inhibitors” (Kadmon Corporation LLC, priority 2015, dated 2019).
Read-outs that look alike come from different tables or passages of the source.

Columns and labels:
HT1080 cells [1] = assay type: cell-based
Protocol: (§1) Cell Proliferation and Cell Death Assays:
(§2) HT1080 cells (or other cell types) were plated in 96-well format at cell densities suitable for culture from 24-72 hrs. For IC50 of cellular proliferation, cells were fixed with TCA and stained with SRB to quantify relative viability. At the end of the specified assay time, the percentage of drug-treated cells was calculated relative to the DMSO control. For cell death assays, viability was assessed relative to the 0-hour timepoint

HT1080 cells [2] = experiment: Cell proliferation assay, single agents and combinations, HT1080; assay type: cell-based; details: Homo sapiens; HT-1080 cells; read-out: IC50 as a single agent
Protocol: as §1, §2

[3] = tested on: glycolysis in HT1080 cells; experiment: Glycolysis assay: oligomycin plus compound, cellular ATP by Cell Titer Glo; assay type: cell-based; details: Homo sapiens, HT-1080, 1 h, 10 μM oligomycin, one hour, class symbols
In short: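 Confluent HT1080 cells treated 1 h with compound plus 10 μM oligomycin to block mitochondrial ATP, so remaining ATP reflects glycolysis. Cellular ATP read by Cell Titer-Glo luminescence; IC50 derived from dose-response curves.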

Jurkat = experiment: Proliferation assay, Jurkat; assay type: cell-based; details: Homo sapiens, 72 hrs
Protocol: (§3) As previously discussed, glucose is the major energy source for cancer cells and, compared to normal cells, cancer cells rely on increased rates of glycolysis for survival and cell growth. […] Table 2 summarizes these findings for multiple compounds:
as §1, §2

[4] = tested on: MOG-induced experimental autoimmune encephalitis (EAE); experiment: Mouse prophylactic MOG-EAE model; assay type: in vivo; details: dosed orally day 3 to day 25, compared to vehicle control (FIG. 9)
Protocol: Mouse Prophylactic MOG-EAE Model:
Performed at Hooke laboratories. Briefly, mice were immunized with MOG peptide on day 0 and subsequently injected with pertussis toxin. Compounds were dosed orally beginning on day 3 continuing until day 25.

U937 = experiment: Proliferation assay, U937; assay type: cell-based; details: Homo sapiens, U-937; 72 hrs
Protocol: as §3, §1, §2

MOLT-4 = experiment: Proliferation assay, MOLT-4; assay type: cell-based; details: Homo sapiens, 72 hrs
Protocol: as §3, §1, §2

[5] = HT1080 cells, 10 μM Ex. 31 or 25 μM H2O2

Structure (SMILES) | IC50 [3] [nM] | IC50 (Jurkat) [nM] | further results
CN(C)CC[C@H](CSc1ccccc1)Nc1ccc(S(=O)(=O)NC(=O)c2ccc(N3CCN(Cc4ccccc4-c4ccc(Cl)cc4)CC3)cc2)cc1[N+](=O)[O-] [ABT-737, reference compound] | – | – | cell death as single agents (HT1080 cells [1]; HT-1080 cells): neither Ex. 31 nor ABT-737 (10 M) caused cell death; IC50 (HT1080 cells [2]): ~8500 nM
O=C(COc1cccc(-c2nc(Nc3ccc(-c4cn[nH]c4)cc3)c3occc3n2)c1)NC1CC1 [Example 21] | 501 to 1000 | 9400 | –
CC(C)NC(=O)COc1cccc(-c2nc(Nc3ccc(-c4cn[nH]c4)cc3)c3sccc3n2)c1 [Example 7, 2-(3-(4-((4-(1H-pyrazol-4-yl)phenyl)amino)thieno[3,2-d]pyrimidin-2-yl)phenoxy)-N-isopropylacetamide] | 10 to 100 | 500 | onset and end clinical score [4]: either delayed the onset or lowered the end clinical score; IC50 (U937): 388 nM; IC50 (MOLT-4): 823 nM
OO [Example H2O2, H2O2, reference compound] | – | – | cell death as single agents (HT1080 cells [1]; [5]): neither 10 μM Ex. 31 nor 25 μM H2O2 caused cell death
CC(C)NC(=O)COc1cccc(-c2nc(Nc3ccc(-c4cn[nH]c4)cc3)c3ncn(C)c3n2)c1 [Example 5, 2-(3-(6-((4-(1H-pyrazol-4-yl)phenyl)amino)-9-methyl-9H-purin-2-yl)phenoxy)-N-isopropylacetamide] | 251 to 500 | 397 | –
O=C(COc1cccc(-c2nc(Nc3ccc(-c4cn[nH]c4)cc3)c3sccc3n2)c1)NC1CCC1 [Example 23] | 101 to 250 | 162 | –
O=C(COc1cccc(-c2nc3c(c(Nc4ccc(-c5cn[nH]c5)cc4)n2)COC3)c1)NC1CCCC1 [Example 32] | 10 to 100 | 170 | IC50 (U937): 123 nM; IC50 (MOLT-4): 264 nM
O=C(COc1cccc(-c2nc3c(c(Nc4ccc(-c5cn[nH]c5)cc4)n2)COC3)c1)NC1CCC1 [Example 31] | 10 to 100 | 294 | IC50 (U937): 256 nM; IC50 (MOLT-4): 385 nM; cell death, combination with H2O2 (HT1080 cells [1]; HT1080 cells, 10 μM Ex. 31 + 25 μM H2O2 (FIG. 5B)): ~45%; cell death as single agents (HT1080 cells [1]; [5]): neither 10 μM Ex. 31 nor 25 μM H2O2 caused cell death; cell death as single agents (HT1080 cells [1]; HT-1080 cells): neither Ex. 31 nor ABT-737 (10 M) caused cell death; cell death, combination with ABT-737 (HT1080 cells [1]; HT-1080 cells, 72 hours, Ex. 31 + ABT-737 (FIG. 4B)): ~60%
O=C(COc1cccc(-c2nc(Nc3ccc(-c4cn[nH]c4)cc3)c3ccsc3n2)c1)NC1CCC1 [Example 27] | 101 to 250 | – | –
CCC(C)NC(=O)C(C)Oc1cccc(-c2nc3c(c(Nc4ccc(-c5cn[nH]c5)cc4)n2)COC3)c1 (centres unmarked) [Example 187, 2-(3-(4-((4-(1H-pyrazol-4-yl)phenyl)amino)-5,7-dihydrofuro[3,4-d]pyrimidin-2-yl)phenoxy)-N-(sec-butyl)propanamide] | > 1000 | – | –
O=C(CN1CCOCC1)Nc1cccc(-c2nc(Nc3ccc(-c4cn[nH]c4)cc3)c3ccsc3n2)c1 [Example 10, N-(3-(4-((4-(1H-pyrazol-4-yl)phenyl)amino)thieno[2,3-d]pyrimidin-2-yl)phenyl)-2-morpholinoacetamide] | > 1000 | – | –
CCC(CC)NC(=O)COc1cccc(-c2nc3c(c(Nc4ccc(-c5cn[nH]c5)cc4)n2)CN(CC)CC3)c1 [Example 118, 2-(3-(4-((4-(1H-pyrazol-4-yl)phenyl)amino)-6-ethyl-5,6,7,8-tetrahydropyrido[4,3-d]pyrimidin-2-yl)phenoxy)-N-(pentan-3-yl)acetamide] | 501 to 1000 | – | –
O=C(COc1cccc(-c2nc(Nc3ccc(-c4cn[nH]c4)cc3)c3sccc3n2)c1)NC1CCCC1 [Example 24] | 10 to 100 | 216 | IC50 (U937): 234 nM; IC50 (MOLT-4): 417 nM
COCCOc1cccc(-c2nc3c(c(Nc4ccc(-c5cn[nH]c5)cc4)n2)COCC3)c1 [Example 127, N-(4-(1H-pyrazol-4-yl)phenyl)-2-(3-(2-methoxyethoxy)phenyl)-7,8-dihydro-5H-pyrano[4,3-d]pyrimidin-4-amine] | > 1000 | – | –
CC(C)CNC(=O)C(C)Oc1cccc(-c2nc3c(c(Nc4ccc(-c5cn[nH]c5)cc4)n2)COC3)c1 (centres unmarked) [Example 186, 2-(3-(4-((4-(1H-pyrazol-4-yl)phenyl)amino)-5,7-dihydrofuro[3,4-d]pyrimidin-2-yl)phenoxy)-N-isobutylpropanamide] | > 1000 | – | –
CC(C)NC(=O)COc1cccc(-c2nc3c(c(Nc4ccc(-c5cn[nH]c5)cc4)n2)COC3)c1 [Example 1, 2-(3-(4-((4-(1H-pyrazol-4-yl)phenyl)amino)-5,7-dihydrofuro[3,4-d]pyrimidin-2-yl)phenoxy)-N-isopropylacetamide] | 10 to 100 | 630 | IC50 (MOLT-4): 1620 nM
O=C(COc1cccc(-c2nc(Nc3ccc(-c4cn[nH]c4)cc3)c3ncsc3n2)c1)NC1CCC1 [Example 66, 2-(3-(7-((4-(1H-pyrazol-4-yl)phenyl)amino)thiazolo[5,4-d]pyrimidin-5-yl)phenoxy)-N-cyclobutylacetamide] | 251 to 500 | – | –
CCCNC(=O)COc1cccc(-c2nc(Nc3ccc(-c4cn[nH]c4)cc3)c3ccsc3n2)c1 [Example 46, 2-(3-(4-((4-(1H-pyrazol-4-yl)phenyl)amino)thieno[2,3-d]pyrimidin-2-yl)phenoxy)-N-propylacetamide] | 501 to 1000 | – | –
O=C(COc1cccc(-c2nc(Nc3ccc(-c4cn[nH]c4)cc3)c3ccsc3n2)c1)NC1CCCC1 [Example 28] | 101 to 250 | – | –
CC(C)NC(=O)COc1cccc(-c2nc(Nc3ccc(-c4cn[nH]c4)cc3)c3ccsc3n2)c1 [Example 9, 2-(3-(4-((4-(1H-pyrazol-4-yl)phenyl)amino)thieno[2,3-d]pyrimidin-2-yl)phenoxy)-N-isopropylacetamide] | 101 to 250 | – | –
O=C(COc1cccc(-c2nc(Nc3ccc(-c4cn[nH]c4)cc3)c3ccsc3n2)c1)N1CCOCC1 [Example 39, 2-(3-(4-((4-(1H-pyrazol-4-yl)phenyl)amino)thieno[2,3-d]pyrimidin-2-yl)phenoxy)-1-morpholinoethan-1-one] | > 1000 | – | –
